Data: ChEMBL document CHEMBL2010722, “Structure-activity relationship study of beta-carboline derivatives as haspin kinase inhibitors” (Bioorg Med Chem Lett, 2012)
Active and inactive are the calls of the source. The calls are words filed in the database; no cut-off is given here.

Columns and labels:
[1] = target: T1, Dual specificity tyrosine-phosphorylation-regulated kinase 2 (Homo sapiens, UniProt Q92630); experiment: Inhibition of DYRK2
T1 sequence (Q92630 whole entry): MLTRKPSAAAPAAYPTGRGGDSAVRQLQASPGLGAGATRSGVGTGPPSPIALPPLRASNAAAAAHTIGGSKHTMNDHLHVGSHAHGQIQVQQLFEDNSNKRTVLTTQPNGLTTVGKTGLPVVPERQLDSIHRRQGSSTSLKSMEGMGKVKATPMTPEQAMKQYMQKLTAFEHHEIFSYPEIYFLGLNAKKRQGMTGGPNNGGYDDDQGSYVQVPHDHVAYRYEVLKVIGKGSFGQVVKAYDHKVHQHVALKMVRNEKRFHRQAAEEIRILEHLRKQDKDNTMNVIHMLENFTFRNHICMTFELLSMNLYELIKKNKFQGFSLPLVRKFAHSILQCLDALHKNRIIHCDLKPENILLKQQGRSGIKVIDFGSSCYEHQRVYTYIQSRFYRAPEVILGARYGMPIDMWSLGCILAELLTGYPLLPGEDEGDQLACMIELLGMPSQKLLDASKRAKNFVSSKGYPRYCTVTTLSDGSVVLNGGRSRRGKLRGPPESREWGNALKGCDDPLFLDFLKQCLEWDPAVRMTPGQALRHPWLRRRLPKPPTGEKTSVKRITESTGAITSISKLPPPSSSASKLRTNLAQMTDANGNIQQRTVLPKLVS

[2] = target: T2, Serine/threonine-protein kinase haspin (Homo sapiens, UniProt Q8TF76)
T2 sequence (Q8TF76 whole entry): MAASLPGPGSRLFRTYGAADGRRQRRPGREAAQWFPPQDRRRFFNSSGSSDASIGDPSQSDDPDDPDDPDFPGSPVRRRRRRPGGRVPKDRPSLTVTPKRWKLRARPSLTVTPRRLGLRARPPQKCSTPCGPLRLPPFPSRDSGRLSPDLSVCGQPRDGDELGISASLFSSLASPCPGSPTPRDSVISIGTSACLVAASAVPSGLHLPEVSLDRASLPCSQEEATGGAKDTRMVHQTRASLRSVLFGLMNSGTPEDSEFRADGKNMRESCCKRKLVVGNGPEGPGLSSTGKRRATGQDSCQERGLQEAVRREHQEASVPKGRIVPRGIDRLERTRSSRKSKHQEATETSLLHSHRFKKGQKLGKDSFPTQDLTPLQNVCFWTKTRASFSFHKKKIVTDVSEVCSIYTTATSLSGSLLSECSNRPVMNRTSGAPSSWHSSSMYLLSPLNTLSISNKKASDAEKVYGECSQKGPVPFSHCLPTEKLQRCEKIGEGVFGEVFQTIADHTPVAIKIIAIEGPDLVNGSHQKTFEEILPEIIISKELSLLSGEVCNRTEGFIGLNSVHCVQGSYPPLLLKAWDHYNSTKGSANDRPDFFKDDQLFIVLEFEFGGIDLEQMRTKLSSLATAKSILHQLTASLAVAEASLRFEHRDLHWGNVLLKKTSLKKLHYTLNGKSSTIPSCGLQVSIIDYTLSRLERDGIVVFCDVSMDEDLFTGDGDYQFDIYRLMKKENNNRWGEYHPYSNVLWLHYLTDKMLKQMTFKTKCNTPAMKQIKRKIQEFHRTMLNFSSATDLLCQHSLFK

[3] = target: T1, Dual specificity tyrosine-phosphorylation-regulated kinase 2
[4] = target: Serine/threonine-protein kinase haspin (Homo sapiens) (UniProt Q8TF76); experiment: Inhibition of human recombinant N-terminal MBP-tagged haspin kinase expressed in Escherichia coli DE3 at 10 uM after 10 mins by TR-FRET assay

| SMILES | IC50 [1] | IC50 [2] | IC50 [3] | inhibition [4] |
| --- | --- | --- | --- | --- |
| Cc1[nH]ccc2c1[nH]c1cc(=O)ccc12 [HARMOL] | 1500 nM | 770 nM |  |  |
| NCCCCn1c2cc(O)ccc2c2ccnc(C(F)(F)F)c21 |  | 220 nM | 8500 nM |  |
| Cc1nccc2c3ccc(NS(C)(=O)=O)cc3n(CCCCN)c12 |  | 690 nM | > 10000 nM |  |
| COc1cccc2c3ccnc(C)c3n(CCCCN)c12 |  | 220 nM | > 10000 nM |  |
| COc1ccc2c3ccnc(C)c3n(CCCCN)c2c1Cl |  | 830 nM | 8000 nM |  |
| Cc1nccc2c3ccc(O)cc3n(CCCCN)c12 |  | 160 nM | > 10000 nM |  |
| COc1ccc2c3ccncc3n(CCCCN)c2c1 |  | 300 nM | > 10000 nM |  |
| CCc1nccc2c3ccc(OC)cc3n(CCCCN)c12 |  | 190 nM | > 10000 nM |  |
| CNCCCCn1c2cc(OC)ccc2c2ccnc(C)c21 |  | 340 nM | > 10000 nM |  |
| COc1ccc2c(c1)c1ccnc(C)c1n2CCCCN |  | 2400 nM | 4900 nM |  |
| COc1cccc2c1c1ccnc(C)c1n2CCCCN |  | 2700 nM | 7000 nM |  |
| COc1ccc2c3ccnc(C(C)C)c3n(CCCCN)c2c1 |  | 460 nM | > 10000 nM |  |
| Cc1nccc2c3cc4c(cc3n(CCCCN)c12)OCO4 |  | 500 nM | 4800 nM |  |
| Cc1nccc2c1[nH]c1cc(OCCCN)ccc12 |  |  |  | inactive |
| Cc1nccc2c1[nH]c1cc(OCCCCN)ccc12 |  |  |  | inactive |
| COc1ccc2c3ccnc(C)c3n(CCCCN)c2c1 |  | 170 nM | > 10000 nM |  |
| Cc1nccc2c3ccc(OC(C)(C)C)cc3n(CCCCN)c12 |  | 4600 nM | > 10000 nM |  |
| Cc1nccc2c3ccc(F)cc3n(CCCCN)c12 |  | 580 nM | > 10000 nM |  |
| COc1ccc2c3ccnc(C)c3n(CCCCN(C)C)c2c1 |  | 470 nM | > 10000 nM |  |
| COc1ccc2c(c1)[nH]c1c(C)nccc12 [HARMINE] | 690 nM |  |  |  |
